For experiment [1], the system named is glycine site coupled to the NMDA ionophore complex. The following applies: literature citations; cited from earlier work.
Experiment [2] addresses T1, glycine site of the NMDA receptor complex (Rattus norvegicus, UniProt P35439).
T1 construct: Crude synaptic (P2) membranes are prepared from rat forebrains; from tissue; host or cells: rat forebrain (male Wistar), crude synaptic (P2) membranes, Triton X-100 washed
The experiment in a line: In vitro [3H]-glycine binding to rat brain membranes (Test 1). Further details: species or system rat (male Wistar). The following applies: 50% displacement of specific [3H]-glycine binding; 50 nM [3H]-glycine, 4° C., 30 min. The method, then:
The compounds according to the invention were tested as regards the affinity for one or more of the different types of excitatory amino acid receptors and studied in simple radioligand binding experiments. In essence, the method involves incubation of a particular selected radio-labelled ligand and the particular specific substance to be investigated with brain homogenates which contain the receptor. Measurement of receptor occupancy is made by determination of the specific radioactivity bound to the homogenate.
This will make them useful in the treatment of any of the numerous indications caused by hyperactivity of excitatory amino acids.
The glycine site binding activity of these compounds of the present invention can be illustrated by determining their capability for displacing radioactively labelled glycine from the glycine site.
The displacement activity of the compounds may be shown by determining the IC50 value which represents the concentration (μM) which causes a displacement of 50% of the specific binding of [^3 H]-glycine.
In vitro [^3 H]-Glycine Binding to Rat Brain Membranes (Test 1)
The membrane preparation and assay of specific [^3 H]-glycine binding is based upon methodology described by Haring et al. (1991) J. Neurochem. 57, 323-332 and Yoneda et al. (1991) J. Neurochem. 55, 237-244.
All steps are performed at 4° C. Buffers are prepared fresh each week from distilled, deionized water and filtered through sterile 0.2 μm membranes to eliminate artifacts due to microbial contamination. Crude synaptic (P2) membranes are prepared from rat forebrains freshly dissected from male Wistar rats and washed 4 times with low ionic strength buffer. On the day of the assay these preparations are additionally washed with buffer containing a low concentration (0.08% g/g) of Triton X-100, and then twice more in the absence of this detergent. The procedure is aimed at the disruption of synaptic membrane vesicles and removal of endogenous amino acids.
Specific radioligand binding is measured by incubating membranes (400-600 μg/ml of protein) with 50 nM [^3 H]-glycine in the presence or absence of 1 mM of unlabelled glycine at 4° C. for 30 min. Free and bound ligand are separated by centrifugation. Each pellet is rinsed 2× and bound radioactivity measured by liquid scintillation counting. Test substances are substituted for Unlabelled glycine in the assay.

The test system of experiment [3] is convulsions induced by i.c.v. infusion of NMDA. The experiment in a line: Convulsions induced by i.c.v. infusion of NMDA, TV50 (Test 2). The class given is in vivo, mouse (male NMRI). The following applies: dose infused i.c.v. per minute with NMDA to increase time to onset of clonic seizures by 50%. The protocol: The glycine antagonists are co-infused with NMDA and their anti-convulsive effect is measured by determining a) the TV50 value which represents the dose (μg/kg) of the glycine antagonist that has to be infused per minute in order to increase time to onset of clonic seizures by 50%, b) the ED50 value which represents the dose (μg/kg) of the glycine antagonist that has to be infused per minute in order to protect 50% of the animals against clonic seizures for 150 seconds after the start of i.c.v. infusion.
Convulsions induced by i.c.v. infusion of NMDA (Test 2 & 3)
58.84 μg/ml (1 nmol in 2.5 μl) of NMDA (Sigma) dissolved in 0.9% NaCl is co-infused i.c.v. with a glycine antagonist at a speed of 5 μl/min. Infusion is performed through a cannula placed 1 mm posterior and 1 mm lateral to the Bregma point. The cannula is injected 4.3 mm into the skull of male NMRI mice weighing 25 g (range 23-27 g). Placement and length of the cannula into the skull is fixed by a plate positioned 4.3 mm from the point of the cannula. The infusion is stopped after the appearance of clonic seizures in all extremities or 150 seconds after the start time of the infusion. At least 5 doses of each glycine antagonist are tested using 8 mice per dose.

For the molecule `NC1CCN(O)C1=O` (stereo not shown) [HA-966, 3-amino-1-hydroxy-2-pyrrolidone], in experiment [1], the “activity at the glycine site (agonist/antagonist, in words)” value (shortened to “activity … (agonist/antagonist, in words)”) was “weak antagonists”.
`C[C@@H](N)C(=O)O` [D-alanine]: in experiment [1], the “activity … (agonist/antagonist, in words)” value was “strong agonist activity”.
Molecule `O=c1[nH]c2c([nH]c1=O)C(O)c1ccccc1-2` (stereo not shown) [Example 11, 9-Hydroxy-9H-indeno[1,2-b]pyrazine-2,3(1H,4H) -dione] displayed an IC50 in experiment [2] of 920 nM. In experiment [3], the “Test 2 TV50” value turned out to be 5.0 µg/kg.
In turn, `O=C1c2ccccc2-c2[nH]c(=O)c(=O)[nH]c21` [Example 2, 9H-Indeno[1,2-b]pyrazine-2,3,9(1H,4H)-trione] gave an IC50 in experiment [2] of 920 nM. Besides, the “Test 2 TV50” value in experiment [3] came to 44 µg/kg.
For the molecule `N[C@H](CO)C(=O)O` [D-serine], in experiment [1], the “activity … (agonist/antagonist, in words)” value is given as “strong agonist activity”.
Consider `N[C@@H]1CONC1=O` [D-cycloserine], for which the “activity … (agonist/antagonist, in words)” value in experiment [1] is reported as “partial agonists”.
On to `O=C(O)c1cc(O)c2ccc(Cl)cc2n1` [Example 7-Cl-Kyn, 7-chloro-kynurenic acid], for which, in experiment [1], the “activity … (agonist/antagonist, in words)” value was “quite strong antagonists”.
As for `O=c1cnc2c([nH]1)-c1ccccc1C21OCCO1` [Example 6, 9H-Indeno[1,2-b]pyrazine-3,9(4H)-dione 9-ethylene acetal], the IC50 in experiment [2] turned out to be 3700 nM. This counts as single-digit micromolar.
For `N#Cc1cc2[nH]c(=O)c(=O)[nH]c2cc1[N+](=O)[O-]` [CNQX, 6-cyano-7-nitroquinoxaline-2,3-dione], in experiment [1], the “activity … (agonist/antagonist, in words)” value is given as “weak antagonists”.
The molecule `CN1CCN(C2c3ccccc3-c3[nH]c(=O)c(=O)[nH]c32)CC1` (stereo not shown) [Example 18, 9-(4-Methyl-1-piperazinyl)-9H-indeno[1,2-b]pyrazine-2,3(1H,4H)-dione] gave an IC50 in experiment [2] of 150 nM. Besides, the “Test 2 TV50” value in experiment [3] came out at 4.5 µg/kg.
